Experimental data: patent US9205071B2, “Arsenic compounds, their preparation methods and uses thereof” (Changzhou Hi-Tech District Multiple Dimension Industry …, priority 2009, dated 2015)

Experiments:
HL-60 cells [1] = assay: Cell proliferation test (MTT method); type: cell-based; details: HL-60 cell proliferation, 48 h
Protocol: Tested drugs with different concentrations were added, and repeated four wells for each drug concentration group, then continued to culture in a CO2 incubator. Cell proliferation was detected by MTT method 48 h after culture. 15 ul MTT (5 mg/ml) was added in each well, and continued to culture for 4 h. Suspension in the well was collected, centrifuged, and supernatant was discarded. 100 ul of DMSO was added into each well to completely dissolve formazan particles. The solution was sucked into the original well, the absorbance at 492 nm was detected by ELISA, and the inhibiting rate was calculated according to the formula CI=(1-A test group /A control group)×100%.

HL-60 cells [2] = assay: Cell viability test (Trypan blue, live cell rate)

Compound O=[As]([O-])([O-])[O-].[Na+].[Na+].[Na+] [Na3AsO4] has an Inhibiting rate (HL-60 cells [1]; 7.5 uM) of 2.5%, an Inhibiting rate (HL-60 cells [1]; 15 uM) of 7.9% and an Inhibiting rate (HL-60 cells [1]; 30 uM) of 13.9%. For the same compound, the Inhibiting rate (HL-60 cells [1]; 60 uM) was 24.5%, the “live cell rate at 4 d after administration” value (from here on “live cell rate at 4 d”) (HL-60 cells [2]; 7.5 uM) was 93.11% and the “live cell rate at 4 d” value (HL-60 cells [2]; 15 uM) was 89.06%. The “live cell rate at 4 d” value (HL-60 cells [2]; 30 uM) was 75.36%, the “live cell rate at 4 d” value (HL-60 cells [2]; 60 uM) was 60.06% and the “live cell rate at 4 d” value (HL-60 cells [2]; 120 uM) was 43.11%.
